Results as given in ChEMBL document CHEMBL5727957, “1H-pyrazolo[4,3-b]pyridines as PDE1 inhibitors” (2020).

How the values were obtained:
[1] = biological target: Dual specificity calcium/calmodulin-dependent 3',5'-cyclic nucleotide phosphodiesterase 1A (Homo sapiens, UniProt P54750); assay: Inhibition Assay: PDE1A, PDE1B and PDE1C assays were performed as follows: the assays were performed in 60 μL samples containing a fixed amount of the PDE1 enzyme (sufficient to convert 20-25% of the cyclic nucleotide substrate), a buffer (50 mM HEPES pH 7.6; 10 mM MgCl2; 0.02% Tween20), 0.1 mg/ml BSA, 15 nM tritium labelled cAMP and varying amounts of inhibitors. Reactions were initiated by …
Description: (§1) Reactions were initiated by addition of the cyclic nucleotide substrate, and reactions were allowed to proceed for 1 hr at room temperature before being terminated through mixing with 20 μL (0.2 mg) yttrium silicate SPA beads (PerkinElmer).

[2] = biological target: Dual specificity calcium/calmodulin-dependent 3',5'-cyclic nucleotide phosphodiesterase 1C (Homo sapiens, UniProt Q14123); assay: as above
Sequence of Dual specificity calcium/calmodulin-dependent 3',5'-cyclic nucleotide phosphodiesterase 1C (Q14123 whole entry): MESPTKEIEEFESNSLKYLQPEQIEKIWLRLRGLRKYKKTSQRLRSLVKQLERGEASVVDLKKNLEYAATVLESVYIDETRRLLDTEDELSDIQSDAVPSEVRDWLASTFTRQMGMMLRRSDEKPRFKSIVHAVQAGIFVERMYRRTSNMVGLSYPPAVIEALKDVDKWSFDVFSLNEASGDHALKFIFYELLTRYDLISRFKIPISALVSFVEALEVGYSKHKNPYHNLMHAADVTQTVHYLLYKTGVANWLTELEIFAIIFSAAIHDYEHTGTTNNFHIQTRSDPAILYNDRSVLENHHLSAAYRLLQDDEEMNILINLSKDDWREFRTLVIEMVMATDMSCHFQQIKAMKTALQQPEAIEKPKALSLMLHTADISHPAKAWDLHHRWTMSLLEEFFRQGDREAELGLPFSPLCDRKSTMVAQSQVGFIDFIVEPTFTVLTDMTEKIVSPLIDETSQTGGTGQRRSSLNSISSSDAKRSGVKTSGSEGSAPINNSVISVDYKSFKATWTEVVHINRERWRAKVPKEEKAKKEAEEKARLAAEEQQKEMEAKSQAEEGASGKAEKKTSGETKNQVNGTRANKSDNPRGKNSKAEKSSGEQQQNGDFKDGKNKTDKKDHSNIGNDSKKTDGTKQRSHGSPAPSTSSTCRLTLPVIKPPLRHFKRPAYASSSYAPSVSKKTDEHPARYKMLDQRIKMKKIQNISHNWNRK
Description: as §1

Sequence of Dual specificity calcium/calmodulin-dependent 3',5'-cyclic nucleotide phosphodiesterase 1A (P54750 whole entry): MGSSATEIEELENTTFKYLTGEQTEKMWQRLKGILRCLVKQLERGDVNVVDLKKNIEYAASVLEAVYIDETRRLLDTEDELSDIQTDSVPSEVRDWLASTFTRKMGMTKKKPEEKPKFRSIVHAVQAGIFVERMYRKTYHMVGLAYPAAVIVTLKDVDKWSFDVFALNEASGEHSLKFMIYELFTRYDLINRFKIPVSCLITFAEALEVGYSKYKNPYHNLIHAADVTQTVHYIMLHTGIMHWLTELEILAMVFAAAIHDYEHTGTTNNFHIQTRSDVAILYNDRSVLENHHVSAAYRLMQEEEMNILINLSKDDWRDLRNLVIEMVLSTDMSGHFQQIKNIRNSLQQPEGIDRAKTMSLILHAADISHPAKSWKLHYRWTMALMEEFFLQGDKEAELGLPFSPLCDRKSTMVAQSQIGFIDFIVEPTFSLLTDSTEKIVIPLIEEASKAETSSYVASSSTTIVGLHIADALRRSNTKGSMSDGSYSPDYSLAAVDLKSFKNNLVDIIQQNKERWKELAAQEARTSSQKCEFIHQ

SMILES	IC50 [1]	IC50 [2]
CCOc1ncccc1-c1cc(NCc2cccn3c(C)nnc23)c2c(n1)c(C)nn2C(C)C	3 nM	6.1 nM
CCOc1ncccc1-c1cc(NCc2cccc3ocnc23)c2c(n1)c(C)nn2C(C)C	14 nM	39 nM
